Calls of active or inactive are those of the source. The rule behind the calls is not given here.
System: CCRIS mutagenicity, Ames/micronucleus/aberration tests
Assay: CCRIS mutagenicity studies
[1] = Test System: AMES SALMONELLA TYPHIMURIUM, Strain/Indicator: TA98, Metabolic Activation: NONE, Method: STANDARD PLATE
[2] = Test System: AMES SALMONELLA TYPHIMURIUM, Strain/Indicator: TA100, Metabolic Activation: NONE, Method: STANDARD PLATE
[3] = Test System: AMES SALMONELLA TYPHIMURIUM, Strain/Indicator: TA102, Metabolic Activation: NONE, Method: STANDARD PLATE
[4] = Test System: AMES SALMONELLA TYPHIMURIUM, Strain/Indicator: TA98, Metabolic Activation: S-9, Method: STANDARD PLATE
[5] = Test System: AMES SALMONELLA TYPHIMURIUM, Strain/Indicator: TA100, Metabolic Activation: S-9, Method: STANDARD PLATE
[6] = Test System: AMES SALMONELLA TYPHIMURIUM, Strain/Indicator: TA102, Metabolic Activation: S-9, Method: STANDARD PLATE

Compound	mutagenic call [1]	mutagenic call [2]	mutagenic call [3]	mutagenic call [4]	mutagenic call [5]	mutagenic call [6]	also measured
O=S(=O)(c1ccc(Cl)cc1)c1cc(Cl)c(Cl)cc1Cl	inactive; negative	inactive; negative	inactive; negative	–	–	–	mutagenic call (End Point: In vivo chromosomal aberrations, Test System: Bone marrow cells, Species: Rat, Strain/Sex: Wistar/Female, Route: Oral): inactive; negative; mutagenic call (Test System: AMES SALMONELLA TYPHIMURIUM, Strain/Indicator: TA97A, Metabolic Activation: NONE, Method: STANDARD PLATE): inactive; negative; mutagenic call (Test System: AMES SALMONELLA TYPHIMURIUM, Strain/Indicator: TA97A, Metabolic Activation: RAT, LIVER, S-9, AROCLOR 1254, Method: STANDARD PLATE): inactive; negative; mutagenic call (Test System: AMES SALMONELLA TYPHIMURIUM, Strain/Indicator: TA98, Metabolic Activation: RAT, LIVER, S-9, AROCLOR 1254, Method: STANDARD PLATE): inactive; negative; mutagenic call (Test System: AMES SALMONELLA TYPHIMURIUM, Strain/Indicator: TA100, Metabolic Activation: RAT, LIVER, S-9, AROCLOR 1254, Method: STANDARD PLATE): inactive; negative; mutagenic call (Test System: AMES SALMONELLA TYPHIMURIUM, Strain/Indicator: TA102, Metabolic Activation: RAT, LIVER, S-9, AROCLOR 1254, Method: STANDARD PLATE): inactive; negative
CC(C)OC(=O)/C(Cl)=C(/Cl)C=O	–	active; positive	–	–	–	–	–
CCOc1ccc(C(C)(C)C)cc1NC(=O)C(=O)Nc1ccccc1CC	inactive; negative	inactive; negative	inactive; negative	inactive; negative	inactive; negative	inactive; negative	mutagenic call (Test System: AMES SALMONELLA TYPHIMURIUM, Strain/Indicator: TA97, Metabolic Activation: NONE, Method: STANDARD PLATE): inactive; negative; mutagenic call (Test System: AMES SALMONELLA TYPHIMURIUM, Strain/Indicator: TA97, Metabolic Activation: S-9, Method: STANDARD PLATE): inactive; negative; mutagenic call (Test System: E.COLI, Strain/Indicator: WP2 (PKM101), Metabolic Activation: NONE, Method: STANDARD PLATE): inactive; negative; mutagenic call (Test System: E.COLI, Strain/Indicator: WP2 (PKM101), Metabolic Activation: S-9, Method: STANDARD PLATE): inactive; negative
c1ccc(OC2CO2)cc1 (configuration not stated)	–	–	–	–	–	–	mutagenic call (Test System: AMES SALMONELLA TYPHIMURIUM, Strain/Indicator: TA98, Metabolic Activation: RAT LIVER MICROSOMES, Method: STANDARD PLATE): active; positive; mutagenic call (Test System: AMES SALMONELLA TYPHIMURIUM, Strain/Indicator: TA1535, Metabolic Activation: RAT LIVER MICROSOMES, Method: STANDARD PLATE): active; positive
CCOC(=O)C1(CCCCCCOCc2cccs2)CO1 (configuration not stated)	active; positive	inactive; negative	inactive; negative	active; positive	inactive; negative	inactive; negative	mutagenic call (Test System: AMES SALMONELLA TYPHIMURIUM, Strain/Indicator: TA1535, Metabolic Activation: NONE, Method: STANDARD PLATE): inactive; negative; mutagenic call (Test System: AMES SALMONELLA TYPHIMURIUM, Strain/Indicator: TA1535, Metabolic Activation: S-9, Method: STANDARD PLATE): inactive; negative; mutagenic call (Test System: AMES SALMONELLA TYPHIMURIUM, Strain/Indicator: TA1537, Metabolic Activation: NONE, Method: STANDARD PLATE): inactive; negative; mutagenic call (Test System: AMES SALMONELLA TYPHIMURIUM, Strain/Indicator: TA1537, Metabolic Activation: S-9, Method: STANDARD PLATE): inactive; negative
